Test results: ChEMBL document CHEMBL1147464, “Synthesis and SAR of bis-statine based peptides as BACE 1 inhibitors” (Bioorg Med Chem Lett, 2004)

Target: Beta-secretase 1 (Homo sapiens, UniProt P56817)
Experiment: Inhibition of human Beta-secretase 1

Beta-secretase 1, sequence (P56817 whole entry): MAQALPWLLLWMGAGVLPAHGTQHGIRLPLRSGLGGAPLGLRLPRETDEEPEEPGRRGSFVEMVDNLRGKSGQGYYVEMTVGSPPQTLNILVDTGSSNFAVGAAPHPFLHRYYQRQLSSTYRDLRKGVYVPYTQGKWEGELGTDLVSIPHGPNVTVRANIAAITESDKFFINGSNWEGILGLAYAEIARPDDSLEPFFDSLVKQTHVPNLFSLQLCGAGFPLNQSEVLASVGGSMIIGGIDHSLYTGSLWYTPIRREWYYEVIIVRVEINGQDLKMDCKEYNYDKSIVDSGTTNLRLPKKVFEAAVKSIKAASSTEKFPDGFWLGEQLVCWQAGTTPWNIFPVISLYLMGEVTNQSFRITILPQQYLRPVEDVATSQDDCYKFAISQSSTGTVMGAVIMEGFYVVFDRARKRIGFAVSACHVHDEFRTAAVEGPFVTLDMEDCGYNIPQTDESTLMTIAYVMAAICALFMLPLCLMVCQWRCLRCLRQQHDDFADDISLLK

Going from CC(=O)NCC(=O)N[C@@H](Cc1ccccc1)[C@@H](O)CC(=O)N[C@@H](CC1CCCCC1)[C@@H](O)CC(=O)N[C@H](C(=O)NCc1ccc(C(=O)O)cc1)C(C)C to CC(=O)N[C@@H](CC(C)C)C(=O)N[C@@H](Cc1ccccc1)[C@@H](O)CC(=O)N[C@@H](CC1CCCCC1)[C@@H](O)CC(=O)N[C@H](C(=O)NCc1ccc(C(=O)O)cc1)C(C)C (stereo in doubt; 13), the IC50 falls from 9 µM to 0.05 µM (180-fold).

First: CC(C)[C@H](NC(=O)C[C@H](O)[C@H](CC1CCCCC1)NC(=O)C[C@H](O)[C@H](Cc1ccccc1)NC(=O)[C@@H]1CCCN1)C(=O)NCc1ccc(C(=O)O)cc1
Second: CC(C)[C@H](NC(=O)C[C@H](O)[C@H](CC1CCCCC1)NC(=O)C[C@H](O)[C@H](Cc1ccccc1)NC(=O)OC(C)(C)C)C(=O)NCc1ccc(C(=O)O)cc1
The IC50 of the first is lower: 1.3 µM for the first, > 100 µM for the second.

First: CCC(C)C[C@H](NC(=O)[C@H](CC(C)C)NC(C)=O)[C@@H](O)CC(=O)NC(CC[S+](C)[O-])[C@@H](O)CC(=O)N[C@H](C(=O)NCc1ccc(C(=O)O)cc1)C(C)C (some centres not stated)
Second: CCC(C)C[C@H](NC(=O)[C@H](CC(C)C)NC(C)=O)[C@@H](O)CC(=O)NC(CCSC)[C@@H](O)CC(=O)N[C@H](C(=O)NCc1ccc(C(=O)O)cc1)C(C)C (some centres not stated)
The IC50 of the first is 74-fold higher: 34 µM for the first, 0.46 µM for the second. The second is the more potent here.

Compared with CCC(C)C[C@H](NC(=O)C[C@H](O)[C@H](Cc1ccccc1)NC(=O)[C@H](CC(C)C)NC(C)=O)[C@@H](O)CC(=O)N[C@H](C(=O)NCc1ccc(C(=O)O)cc1)C(C)C (some centres not stated), CCC(C)C[C@H](NC(=O)[C@H](CC(C)C)NC(C)=O)[C@@H](O)CC(=O)N[C@@H](Cc1ccccc1)[C@@H](O)CC(=O)N[C@H](C(=O)NCc1ccc(C(=O)O)cc1)C(C)C (some centres not stated) is 31-fold lower in IC50: 0.65 µM for the first, 0.021 µM for the second.

First: CC(=O)N[C@@H](CCC(=O)O)C(=O)N[C@@H](Cc1ccccc1)[C@@H](O)CC(=O)N[C@@H](CC1CCCCC1)[C@@H](O)CC(=O)N[C@H](C(=O)NCc1ccc(C(=O)O)cc1)C(C)C
Second: CC(=O)N[C@@H](CC(C)C)C(=O)N[C@@H](Cc1ccccc1)[C@@H](O)CC(=O)N[C@@H](CC1CCCCC1)[C@@H](O)CC(=O)N[C@H](C(=O)NCc1ccc(C(=O)O)cc1)C(C)C (stereo in doubt; 15)
The IC50 of the first is 63-fold higher: 42 µM for the first, 0.67 µM for the second.

Going from CC(C)[C@H](NC(=O)C[C@H](O)[C@H](CC1CCCCC1)NC(=O)C[C@H](O)[C@@H](N)Cc1ccccc1)C(=O)NCc1ccc(C(=O)O)cc1 to CC(=O)N[C@@H](Cc1ccccc1)C(=O)N[C@@H](Cc1ccccc1)[C@@H](O)CC(=O)N[C@@H](CC1CCCCC1)[C@@H](O)CC(=O)N[C@H](C(=O)NCc1ccc(C(=O)O)cc1)C(C)C, the IC50 falls from > 100 µM to 5.6 µM.
